Measured values reported in patent US20070072903A1, “Altering the concentration of intracellular agents by p2x7 receptor modulation” (priority 2003, published 2007).

T1: P2X7 receptor (Mus musculus, UniProt Q9Z1M0)
T1 construct: Murine mesenteric lymph nodes (10^7/ml) were disaggregated in DMEM; from tissue; host or cells: murine mesenteric lymph node lymphocytes (CD4+, CD8+ T cells, B cells)
T1 sequence (Q9Z1M0 1-595): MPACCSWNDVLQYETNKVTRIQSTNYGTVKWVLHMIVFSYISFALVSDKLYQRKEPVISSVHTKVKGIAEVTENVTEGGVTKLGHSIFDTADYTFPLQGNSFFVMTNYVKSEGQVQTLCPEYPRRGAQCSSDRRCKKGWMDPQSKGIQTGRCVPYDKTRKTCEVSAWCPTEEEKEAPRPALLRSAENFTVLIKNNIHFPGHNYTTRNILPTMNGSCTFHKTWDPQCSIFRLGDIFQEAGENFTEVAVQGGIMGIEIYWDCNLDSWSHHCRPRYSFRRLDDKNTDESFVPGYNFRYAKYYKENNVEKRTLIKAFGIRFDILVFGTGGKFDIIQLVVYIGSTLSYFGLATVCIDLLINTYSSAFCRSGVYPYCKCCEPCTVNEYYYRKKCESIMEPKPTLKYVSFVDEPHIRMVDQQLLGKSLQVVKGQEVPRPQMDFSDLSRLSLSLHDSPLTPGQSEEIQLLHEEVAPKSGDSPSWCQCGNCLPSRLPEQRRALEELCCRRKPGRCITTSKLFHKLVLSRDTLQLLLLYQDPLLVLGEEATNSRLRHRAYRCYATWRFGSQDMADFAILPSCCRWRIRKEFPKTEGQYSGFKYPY

T2: P2X7 receptor (Rattus norvegicus, UniProt Q64663)
T2 construct: expressed in transfected cells; transiently co-transfected with MDR1 cDNA
T2 sequence (Q64663 1-595): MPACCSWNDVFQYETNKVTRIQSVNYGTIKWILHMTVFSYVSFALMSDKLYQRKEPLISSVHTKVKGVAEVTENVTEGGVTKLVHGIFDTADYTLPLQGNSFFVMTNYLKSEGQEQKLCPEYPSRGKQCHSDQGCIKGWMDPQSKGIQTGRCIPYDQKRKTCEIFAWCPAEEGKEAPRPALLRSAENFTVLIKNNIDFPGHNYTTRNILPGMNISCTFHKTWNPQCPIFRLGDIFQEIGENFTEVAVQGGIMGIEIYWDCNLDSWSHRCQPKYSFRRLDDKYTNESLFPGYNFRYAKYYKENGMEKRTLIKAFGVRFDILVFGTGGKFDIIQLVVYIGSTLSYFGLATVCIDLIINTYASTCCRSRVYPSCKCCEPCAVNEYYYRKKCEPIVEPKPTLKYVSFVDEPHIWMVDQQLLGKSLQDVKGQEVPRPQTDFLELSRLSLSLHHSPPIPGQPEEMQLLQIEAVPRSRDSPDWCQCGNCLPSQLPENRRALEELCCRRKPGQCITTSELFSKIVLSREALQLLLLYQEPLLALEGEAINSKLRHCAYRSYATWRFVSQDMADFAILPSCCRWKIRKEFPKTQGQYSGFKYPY

B1: annexin V: substance which binds to phosphatidylserine and retains it in the outer leaflet (protein, UniProt P08758 2-320, looked up)
Annexin A5: AQVLRGTVTDFPGFDERADAETLRKAMKGLGTDEESILTLLTSRSNAQRQEISAAFKTLFGRDLLDDLKSELTGKFEKLIVALMKPSRLYDAYELKHALKGAGTNEKVLTEIIASRTPEELRAIKQVYEEEYGSSLEDDVVGDTSGYYQRMLVVLLQANRDPDAGIDEAQVEQDAQALFQAGELKWGTDEEKFITIFGTRSVSHLRKVFDKYMTISGFQIEETIDRETSGNLEQLLLAVVKSIRSIPAYLAETLYYAMKGAGTDDHTLIRVMVSRSEIDLFNIRKEFRKNFATSLYSMIKGDTSGDYKKALLLLCGEDD

What was measured:
P2X7 receptor [1] = molecular target: T1, P2X7 receptor; assay: PS translocation (annexin V binding) in murine lymphocytes, real-time flow cytometry; assay type: cell-based
Excerpt: Murine mesenteric lymph nodes (10^7/ml) were disaggregated in DMEM. To discriminate between different lymphocyte subsets, cells were stained with CD4^APC, CD4^CYCHROME, CD4^PE, CD4^FITC, CD8^APC, CD8^PE, CD8^PERCP, CD8^FITC, B220^APC (Becton Dickinson, Cailf.) antibodies as indicated. The fluorophore on antibodies used to identify CD4^+ and CD8^+T cells was varied in some experiments to avoid overlap between emission spectra of the antibody-conjugated fluorochromes and fluorescent transport substrates. Cells were washed with DMEM and analysed by flow cytometry (CellQuest software—Becton Dickinson). Live cells were gated by eye on the basis of forward scatter and side scatter. […]
To measure drug uptake the following fluorochromes were used (from Molecular Probes, Leiden, Netherlands, unless stated): 0.2 μM BODIPY-taxol (BT), 0.25 μM Rh123, 0.2 μM mitoxantrone (Sigma). PS exposure was monitored simultaneously in the same population of cells by increased binding of annexin V as follows. Cells were equilibrated with annexin V^FITC, annexin V^PE, or annexin V^CY5 (AV—Becton Dickinson, Cailf.) together with propidium iodide (PI) for four minutes, and analysed by flow cytometry on a FACScalibur machine using CellQuest software (Becton Dickinson, Cailf.). […] Cells were monitored for BT uptake or PS exposure continuously in real time for up to 15 minutes, as indicated. […]

[2] = injected into the hindpaw of rats at 100 nmol/50 μl; cited from earlier work
P-gp [3] = assay: Rh123 uptake (P-gp activity) in murine lymphocytes, real-time flow cytometry; assay type: cell-based, mouse; conditions: 0.25 μM Rh123, 150 μM BzATP; CD4+, CD8+ and B cells
Excerpt: Murine mesenteric lymph nodes (10^7/ml) were disaggregated in DMEM. To discriminate between different lymphocyte subsets, cells were stained with CD4^APC, CD4^CYCHROME, CD4^PE, CD4^FITC, CD8^APC, CD8^PE, CD8^PERCP, CD8^FITC, B220^APC (Becton Dickinson, Cailf.) antibodies as indicated. The fluorophore on antibodies used to identify CD4^+ and CD8^+T cells was varied in some experiments to avoid overlap between emission spectra of the antibody-conjugated fluorochromes and fluorescent transport substrates. Cells were washed with DMEM and analysed by flow cytometry (CellQuest software—Becton Dickinson). Live cells were gated by eye on the basis of forward scatter and side scatter. Lymphocytes lacking CD4 and CD8 were defined as B cells.
Lymphocytes were labelled with anti-CD4^CYCHROME and anti-CD8^APC antibodies to discriminate between CD4^+T cells, CD8^+T cells and B cells (CD4^− CD8^−). The lymphocytes were incubated with annexin V^PE, and then 0.25 μM Rh123 and 150 μM BzATP were added sequentially (as indicated in the Figures by arrows).

P2X7-HEK 293 cells = assay: BODIPY-taxol uptake in HEK 293 and P2X7-HEK 293 cells; assay type: cell-based; conditions: 150 μM BzATP
Method: (§1) NIH 3T3 cells stably transfected with the human MDR1 gene (Ueda et al, 1987 Proc. Natl. Acad. Sci. USA 84, 3004-3008) were a gift from Michael Gottesman (NIH, Bethesda) and were maintained in 1 μg/ml colchicine in Dulbecco's modified Eagle's medium (DMEM—Sigma). HEK 293 cells stably transfected with rP2X7 have been described elsewhere (Wilson et al, 2002 J. Biol. Chem. 277, 34017-34023). Transient transfection of HEK293 cells was performed using polyethyleneimine (Sigma), as described previously (Dixon et al, 2000 Hum. Mol. Genet. 9, 1209-1217). pMDR1-wt, which encodes wild-type P-gp, has also been described previously (Blott et al, 1999 EMBO J. 18, 6800-6808). Expression of the MDR1 gene product, P-gp, on transfected cells was determined by labelling of cells with UIC2^PE in the presence of cyclosporine A (Sigma), as described by Mechetner et al, (1997 Proc. Natl. Acad. Sci. 94, 12908-12913).
(§2) To measure drug uptake the following fluorochromes were used (from Molecular Probes, Leiden, Netherlands, unless stated): 0.2 μM BODIPY-taxol (BT), 0.25 μM Rh123, 0.2 μM mitoxantrone (Sigma). PS exposure was monitored simultaneously in the same population of cells by increased binding of annexin V as follows. […] Cells were monitored for BT uptake or PS exposure continuously in real time for up to 15 minutes, as indicated. […]

P-gp [4] = assay: BODIPY-taxol uptake in mixed mdr1a/b-deficient and parental CD8+ lymphocytes; assay type: cell-based, mouse; conditions: mdr-deficient versus wild type CD8+ lymphocytes
Excerpt: Mice were between 6 and 14 weeks of age. When experiments utilised FVB.mdr1a/b^−/− mice, age-matched FVB mice were used.
In a further experiment, lymphocytes from mdr1a/b-deficient or parental mice (mdr1a/b^+/+) were labelled with anti-CD8^PE and anti-CD8^PERCP antibodies, respectively (to discriminate between CD8^+ cells from each mouse during subsequent analysis). […]

P2X7 receptor [5] = molecular target: T2, P2X7 receptor; assay type: cell-based; conditions: HEK 293 cells expressing both P-gp and P2X7 receptor
Method: as §1, §2

P2X7 receptor [6] = assay type: cell-based; conditions: HEK 293 cells expressing P-gp but lacking P2X7 receptors
Method: as §1, §2

P-gp [7] = assay: BODIPY-taxol uptake in HEK 293 cells with or without P2X7, transiently transfected with MDR1; assay type: cell-based; conditions: HEK 293 cells expressing both P-gp and P2X7 receptor
[8] = test system: breast cancer resistance protein (abcg2); assay: Mitoxantrone uptake in mdr1a/b-deficient lymphocytes; assay type: cell-based, mouse; conditions: 0.2 μM mitoxantrone
[9] = test system: plasma membrane permeability; assay: Propidium uptake after BzATP stimulation (non-specific membrane permeability); assay type: cell-based, mouse; conditions: BzATP-mediated stimulation; data omitted for brevity
P-gp [10] = assay: BODIPY-taxol uptake in NIH3T3-MDR and parental NIH3T3 cells, continuous FACS analysis; assay type: cell-based, mouse; conditions: 175 μM BzATP, which lack the P2X7 receptor
Method: To measure drug uptake the following fluorochromes were used (from Molecular Probes, Leiden, Netherlands, unless stated): 0.2 μM BODIPY-taxol (BT), 0.25 μM Rh123, 0.2 μM mitoxantrone (Sigma). […] Baseline fluorescence was established for approximately one minute prior to addition of 150 μM (unless otherwise stated) 2′-3′-O-(4-benzoylbenzoyl)-adenosine 5′-triphosphate (BzATP, Sigma). Cells were monitored for BT uptake or PS exposure continuously in real time for up to 15 minutes, as indicated.
BODIPY-taxol (BT) and 175 μM BzATP were added to NIH3T3-MDR and parental NIH3T3 cells at times indicated by arrows. BT uptake was monitored by continuous FACS analysis, as an increase in fluorescence as a function of time.

[11] = test system: mdr1a/b-deficient CD4+ and CD8+ T cells; assay: BODIPY-taxol uptake in mdr1a/b-deficient T cells; assay type: cell-based, mouse; conditions: 175 μM BzATP
Method: To measure drug uptake the following fluorochromes were used (from Molecular Probes, Leiden, Netherlands, unless stated): 0.2 μM BODIPY-taxol (BT), 0.25 μM Rh123, 0.2 μM mitoxantrone (Sigma). PS exposure was monitored simultaneously in the same population of cells by increased binding of annexin V as follows. Cells were equilibrated with annexin V^FITC, annexin V^PE, or annexin V^CY5 (AV—Becton Dickinson, Cailf.) together with propidium iodide (PI) for four minutes, and analysed by flow cytometry on a FACScalibur machine using CellQuest software (Becton Dickinson, Cailf.). Baseline fluorescence was established for approximately one minute prior to addition of 150 μM (unless otherwise stated) 2′-3′-O-(4-benzoylbenzoyl)-adenosine 5′-triphosphate (BzATP, Sigma). Cells were monitored for BT uptake or PS exposure continuously in real time for up to 15 minutes, as indicated. Continuous line graphs of changes in annexin V binding and fluorochrome uptake were plotted using FCSPress software (FCSPress.com, Cambridge, UK).
Mitoxantrone (Mx) or Mx plus BzATP, were added as indicted by arrows. Mitoxantrone uptake was measured as an increase in mean (±S.E.) fluorescence (FL-4 channel). […] BODIPY-taxol uptake was measured as an increase in mean (±S.E.) fluorescence (FL-1 channel). […] Only the responses of live cells (i.e. those excluding PI) were subsequently analysed.

P-gp [12] = assay: Annexin V trapping of PS after brief BzATP stimulation, BODIPY-taxol uptake in mdr1a/b-deficient and parental lymphocytes; assay type: cell-based, mouse; conditions: BzATP 45 seconds, washed, annexin V for 30 minutes to trap PS in the outer leaflet
Method: In this example, the inventors compared the uptake of BODIPY-taxol by parental and mdr1a/b-deficient lymphocytes, briefly stimulated with BzATP either in the continuous presence of annexin V to ‘trap’ PS in the outer leaflet, or with annexin V added only shortly before acquisition. The results are shown in FIGS. 4A-D. The experiments were performed as described below. Lymphocytes from mdr1a/b-deficient or parental mice (mdr1a/b^+/+) were labelled with anti-CD8^PE and anti-CD8^CY antibodies, respectively (to discriminate between CD8^+ cells from each mouse during subsequent analysis). […] BODIPY-taxol uptake was then measured by real-time flow cytometry. Reduced BT uptake indicates enhanced P-gp activity; increased annexin^CY5 binding indicates increased PS translocation from the inner to outer leaflet of the membrane. […] As PS exposure in samples stained with annexin V for four minutes immediately following stimulation (not shown) was equivalent to that in cells incubated for 30 minutes, PS trapping by annexin V appeared to be effectively complete.

| Molecule | PS translocation (annexin V binding) (P2X7 receptor [1]; 150 μM BzATP, CD4+ T cells, CD8+ T cells and B cells) | PS translocation (P2X7 receptor [1]; mdr1a/b-deficient lymphocytes) | toxicity [2] | P-gp activity (uptake of Rh123) (P-gp [3]) | rate of uptake of BODIPY-taxol (P2X7-HEK 293 cells) | BT uptake following BzATP treatment (P-gp [4]) | PS translocation (P2X7 receptor [5]) | PS translocation (P2X7 receptor [6]) | BODIPY-taxol uptake (P-gp inhibition) (P-gp [7]) | uptake of mitoxantrone [8] | uptake of propidium ions [9] | P-gp activity (BT accumulation) (P-gp [10]) | rate of uptake of BODIPY-taxol [11] | restoration of P-gp activity (P-gp [12]) |
| --- | --- | --- | --- | --- | --- | --- | --- | --- | --- | --- | --- | --- | --- | --- |
| 2′-3′-O-(4-benzoylbenzoyl)-adenosine 5′-triphosphate [BzATP] | stimulated PS translocation with the order of responsiveness CD4^+ cells>CD8^+ T cells>>B cells | induced PS translocation | non-toxic | order of responsiveness was CD4^+>CD8^+>>B cells | increased the rate of uptake | rapidly reached equivalence in the mdr-deficient and wild type cells | induced PS translocation | neither induced PS translocation | increased BODIPY-taxol uptake | markedly increased uptake of mitoxantrone | did not result in an increased uptake of propidium ions | did not inhibit P-gp activity and thus did not increase BT accumulation | increased the rate of uptake |  |
| B1 |  |  |  |  |  |  |  |  |  |  |  |  |  | prevents the restoration of P-gp activity |
